Data from PubChem BioAssay (NCI).
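1) Cells in 96-well plates. 2) Compound, 48 h, 5 concentrations. 3) Linear interpolation between surrounding doses. 4) Unreached endpoint = highest concentration. GI50 is the concentration that inhibits growth by half. TGI marks complete inhibition of growth.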

Key:
Test in all cases: DTP human tumour cell line panel, 48 h
U251 CNS = test system: U251 CNS
KM12 colon = test system: KM12 colon
HOP-92 NSCLC = test system: HOP-92 NSCLC
K-562 leukemia = test system: K-562 leukemia
MDA-MB-231 breast = test system: MDA-MB-231 breast
DU-145 prostate = test system: DU-145 prostate
HS 578T breast = test system: HS 578T breast
SR leukemia = test system: SR leukemia
SF-268 CNS = test system: SF-268 CNS
SF-295 CNS = test system: SF-295 CNS

Row | SMILES | GI50 (U251 CNS) | TGI (U251 CNS) | GI50 (KM12 colon) | TGI (KM12 colon) | GI50 (HOP-92 NSCLC) | TGI (HOP-92 NSCLC) | GI50 (K-562 leukemia) | TGI (K-562 leukemia) | GI50 (MDA-MB-231 breast) | TGI (MDA-MB-231 breast) | GI50 (DU-145 prostate) | TGI (DU-145 prostate) | GI50 (HS 578T breast) | TGI (HS 578T breast) | GI50 (SR leukemia) | GI50 (SF-268 CNS) | TGI (SF-268 CNS) | GI50 (SF-295 CNS) | TGI (SF-295 CNS) | TGI (SR leukemia)
1 | CN(C)c1ccc(/C=C2\N=C(c3ccccc3)N(c3cc(C(F)(F)F)ccc3Cl)C2=O)cc1 | > 94.7 µM | > 100 µM | > 100 µM | > 100 µM | > 87.1 µM | > 100 µM | > 100 µM | > 100 µM | > 100 µM | > 100 µM | > 100 µM | > 100 µM | > 100 µM | > 100 µM | 0.0633 µM | > 100 µM | > 100 µM | > 100 µM | > 100 µM | –
2 | C=C1C(=O)O[C@H]2[C@H]1CC/C(COC(=O)NCc1ccc(OC)cc1)=C\CC[C@@]1(C)O[C@@H]21 | 2.65 µM | 16.2 µM | 4.75 µM | 20.5 µM | 0.559 µM | 1.83 µM | 0.897 µM | 9.08 µM | 1.17 µM | 3.96 µM | 0.726 µM | 2.95 µM | 3.1 µM | 30.7 µM | 0.656 µM | 1.72 µM | 13.4 µM | 11.1 µM | 25 µM | 3.84 µM
3 | NS(=O)(=O)c1ccc(N=Nc2c(O)[nH]c3ccc(C(=O)NCc4ccncc4)cc23)cc1 | > 25 µM | > 25 µM | > 25 µM | > 25 µM | > 25 µM | > 25 µM | > 25 µM | > 25 µM | > 25 µM | > 25 µM | > 25 µM | > 25 µM | > 25 µM | > 25 µM | > 25 µM | > 25 µM | > 25 µM | > 25 µM | > 25 µM | > 25 µM
4 | O=[N+]([O-])c1nccn1CC(O)CN1CCCCC1 (centres undefined) | – | > 100 µM | – | > 100 µM | – | > 100 µM | – | > 100 µM | – | > 100 µM | – | > 100 µM | – | > 100 µM | – | – | > 100 µM | – | > 100 µM | > 100 µM
5 | COc1cc2ncnc(-n3ncc4cc(NC(=O)Nc5ccc(Cl)c(Cl)c5)ccc43)c2cc1OC | 1.5 µM | 3.06 µM | 0.0514 µM | 9.66 µM | 1.92 µM | 4.19 µM | 3.02 µM | 10.8 µM | 1.96 µM | 4.03 µM | 3.2 µM | 11.9 µM | 2 µM | 7.95 µM | 2.75 µM | 2.44 µM | 7.32 µM | 1.38 µM | 2.94 µM | > 100 µM
6 | CN1CCN(Cc2ccc(NC(=O)c3cncc(C#Cc4cnc(N)cc4C#N)c3)cc2C(F)(F)F)CC1 | 4.45 µM | 19.1 µM | 0.0632 µM | 13.3 µM | 0.906 µM | 4.44 µM | 0.034 µM | 12.1 µM | 1.15 µM | 3.1 µM | 3.25 µM | 15.5 µM | 1.46 µM | 7.46 µM | 4.21 µM | 3.7 µM | 19.2 µM | 3.54 µM | 15.3 µM | > 100 µM
7 | Cc1cc(C)c2c(n1)sc1c(N)ncnc12 | > 25 µM | > 25 µM | > 22.3 µM | > 25 µM | 1.43 µM | > 14 µM | > 25 µM | > 25 µM | > 24 µM | > 25 µM | > 25 µM | > 25 µM | 11.4 µM | > 25 µM | 9.43 µM | > 25 µM | > 25 µM | > 25 µM | > 25 µM | > 25 µM
8 | CCOc1ccc(/C(C=O)=C(\Cl)c2ccc(OC)cc2)cc1 | – | > 100 µM | – | > 100 µM | – | > 100 µM | – | > 100 µM | – | > 100 µM | – | > 100 µM | – | > 100 µM | – | – | > 100 µM | – | > 100 µM | > 100 µM
9 | COC(=O)C(CCC(=O)CCl)N1C(=O)c2ccccc2C1=O (centres undefined) | – | 28.9 µM | – | 36.9 µM | – | 12.1 µM | – | 12.7 µM | – | 28.7 µM | – | 26.9 µM | – | 32.4 µM | – | – | 28.4 µM | – | 35.2 µM | 11.7 µM
10 | Cn1c(=O)c2[nH]c(SCCN3CCOCC3)nc2n(C)c1=S | – | > 100 µM | – | > 100 µM | – | > 100 µM | – | > 100 µM | – | > 100 µM | – | > 100 µM | – | > 100 µM | – | – | > 100 µM | – | > 100 µM | > 100 µM
